TGI and GI50 data for nine molecules are collected here from PubChem BioAssay (NCI).

Values joined by “and” are separate entries in the source; they are usually repeats but may differ in a detail not shown here. Identical values can stand only once.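 All cell lines were grown in 96-well plates and treated with compound for 48 hours. At the GI50, growth is halved. TGI denotes the concentration required for complete inhibition of growth.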

Test systems include A498 renal; BT-549 breast; HCT-116 colon; HCT-15 colon; HL-60(TB) leukemia; M14 melanoma; SF-295 CNS; SK-MEL-28 melanoma; SK-OV-3 ovarian; UACC-257 melanoma.
What all share (experiment): growth of human tumour cells (NCI), 48 h

Regarding `O=C(O)[C@@H]1C2CC([C@@H]1C(=O)O)[C@H](N1C(=O)CCC1=O)[C@@H]2Br` (some centres undefined), the TGI with A498 renal, in the assay with BT-549 breast, in the assay with HCT-116 colon, in the assay on HCT-15 colon, in the assay on HL-60(TB) leukemia and with M14 melanoma was greater than 100 µM each time. Also, the TGI with SF-295 CNS, in the assay on SK-MEL-28 melanoma, with SK-OV-3 ovarian and in the assay on UACC-257 melanoma was greater than 100 µM each time.

Consider `CCCN(Cc1ccc(F)cc1)c1ccc(CO)c(Cl)c1`, for which the GI50 in the assay with A498 renal is 0.0236 µM; with BT-549 breast it was 11.7 µM; in the assay with HCT-116 colon it was 0.138 µM; in the assay with HCT-15 colon, 5.35 µM; in the assay with HL-60(TB) leukemia it was 3.27 µM; with M14 melanoma it was 14.3 µM. In addition, the GI50 in the assay with SF-295 CNS was 1.41 µM; with SK-MEL-28 melanoma it was 13.7 µM; with SK-OV-3 ovarian it was 6.31 µM; in the assay with UACC-257 melanoma, 0.207 µM. Besides, the TGI in the assay with A498 renal was 0.102 µM; in the assay with BT-549 breast, 25.6 µM; in the assay with HCT-116 colon it was 3.86 µM; in the assay on HCT-15 colon it was 19.8 µM; in the assay on HL-60(TB) leukemia, 19.2 µM; in the assay on M14 melanoma, 32.9 µM. Further, the TGI in the assay with SF-295 CNS is 9.65 µM; in the assay on SK-MEL-28 melanoma, 27 µM; in the assay with SK-OV-3 ovarian, 19 µM; in the assay with UACC-257 melanoma, 0.776 µM.

Take `CCc1ccc(NCc2cc(OC)c(OC)c(OC)c2)cc1`: the GI50 in the assay on A498 renal is 2.28 µM and 3.85 µM; in the assay on M14 melanoma, 0.261 µM and 0.392 µM; in the assay with SF-295 CNS, 0.0741 µM; in the assay on SK-MEL-28 melanoma it was 1.27 µM and 0.185 µM; with SK-OV-3 ovarian it was 0.315 µM and 0.152 µM. Moreover, the TGI in the assay on A498 renal was 20.6 µM and 49 µM; in the assay with BT-549 breast, > 100 µM and 34.8 µM; in the assay with HCT-116 colon, 10.2 µM and 27.4 µM; with HCT-15 colon, 42.2 µM and 20.4 µM; in the assay with HL-60(TB) leukemia, 7.94 µM and 5.38 µM; in the assay on M14 melanoma it was 27.6 µM. In addition, the TGI in the assay with SF-295 CNS was 6.29 µM and 1.99 µM; with SK-MEL-28 melanoma, > 75.2 µM and 69.6 µM; in the assay on SK-OV-3 ovarian it was 9.02 µM and 16.9 µM; in the assay on UACC-257 melanoma, greater than 100 µM.

On to `COc1ccc(Cn2nc(-c3cc(OC)c(OC)c(OC)c3)c3c2CCc2cnoc2-3)cc1OC`, for which the GI50 was 2 µM with A498 renal; 5.62 µM with BT-549 breast; 3.63 µM in the assay with HCT-116 colon; 4.98 µM with HCT-15 colon; 0.113 µM in the assay on HL-60(TB) leukemia; 4.08 µM in the assay with M14 melanoma. The GI50 in the assay with SK-MEL-28 melanoma was 10.3 µM; in the assay with SK-OV-3 ovarian, 4.36 µM; with UACC-257 melanoma it was 34.6 µM. In addition, the TGI in the assay on A498 renal is 9.8 µM; in the assay with BT-549 breast, greater than 100 µM; with HCT-116 colon, 44 µM; in the assay with HCT-15 colon, greater than 100 µM; with HL-60(TB) leukemia it was 2.28 µM; with M14 melanoma it was 47.4 µM. The figures for the TGI in the assay on SK-MEL-28 melanoma, in the assay on SK-OV-3 ovarian and in the assay on UACC-257 melanoma were greater than 100 µM, 33 µM and greater than 100 µM, respectively.

Consider `CC12CCC=CC1CCC1C2CCC2(C)C(c3ccc(=O)oc3)CCC12O` (centres undefined), for which the GI50 in the assay on A498 renal is 0.0496 µM; in the assay on BT-549 breast, 0.0391 µM; in the assay with HCT-116 colon, 0.0396 µM; in the assay on HCT-15 colon, 0.0923 µM; in the assay on HL-60(TB) leukemia, 0.0257 µM; in the assay on M14 melanoma it was 0.154 µM. Besides, the GI50 with SF-295 CNS was 0.044 µM; in the assay on SK-MEL-28 melanoma, 0.256 µM; in the assay with SK-OV-3 ovarian it was 0.218 µM; in the assay on UACC-257 melanoma it was 0.255 µM. In addition, the TGI in the assay on A498 renal is 0.457 µM; with BT-549 breast, 0.436 µM; with HCT-116 colon it was 0.389 µM; with HCT-15 colon, 0.428 µM; in the assay with HL-60(TB) leukemia, 0.0689 µM; with M14 melanoma, 0.519 µM. The TGI with SF-295 CNS is 0.248 µM; in the assay with SK-MEL-28 melanoma, 1.38 µM; in the assay with SK-OV-3 ovarian it was 0.641 µM; in the assay with UACC-257 melanoma, 0.994 µM.

For `Cc1ccc(C(=O)Nc2ccc(S(=O)(=O)O)c3cc(S(=O)(=O)O)cc(S(=O)(=O)O)c23)cc1NC(=O)c1cccc(N)c1`, the TGI in the assay on A498 renal, in the assay with BT-549 breast, in the assay with HCT-15 colon, in the assay on HL-60(TB) leukemia, with M14 melanoma and in the assay on SF-295 CNS was greater than 100 µM in each case. The TGI in the assay with SK-MEL-28 melanoma, in the assay with SK-OV-3 ovarian and in the assay with UACC-257 melanoma was greater than 100 µM in each case.

For `CSc1nnc(CCSc2ccnc3c(C(F)(F)F)cccc23)o1`, the GI50 in the assay on BT-549 breast is 31.4 µM; in the assay on HCT-116 colon, 66.5 µM; with HCT-15 colon it was greater than 100 µM; in the assay with HL-60(TB) leukemia it was 55.1 µM; in the assay with SF-295 CNS, 59.8 µM; with SK-MEL-28 melanoma, greater than 100 µM. Besides, the GI50 in the assay on SK-OV-3 ovarian and in the assay on UACC-257 melanoma was greater than 100 µM in each case. Besides, the TGI in the assay on BT-549 breast, in the assay with HCT-116 colon, in the assay on HCT-15 colon, in the assay with HL-60(TB) leukemia, in the assay with SF-295 CNS and in the assay with SK-MEL-28 melanoma was greater than 100 µM in each case. The TGI in the assay with SK-OV-3 ovarian and with UACC-257 melanoma was greater than 100 µM throughout.

`c1ccc2nc(Cn3c[n+](Cc4ccc5ccccc5n4)c4ccccc43)ccc2c1`: the GI50 was 2.24 µM in the assay with A498 renal; 1.95 µM with BT-549 breast; 2.4 µM in the assay on HCT-116 colon; 15.1 µM in the assay with HCT-15 colon; 1.99 µM in the assay with M14 melanoma; 2.69 µM with SF-295 CNS. For the same molecule, the GI50 with SK-MEL-28 melanoma is 2.38 µM; in the assay on SK-OV-3 ovarian, 3.03 µM; in the assay on UACC-257 melanoma, 2.02 µM. Further, the TGI in the assay on A498 renal was 10.2 µM; in the assay on BT-549 breast, 6.5 µM; in the assay on HCT-116 colon, 12.2 µM; with HCT-15 colon, 32.6 µM; with M14 melanoma, 6.99 µM; in the assay on SF-295 CNS it was 11.9 µM. In addition, the TGI in the assay on SK-MEL-28 melanoma was 9.98 µM; with SK-OV-3 ovarian, 11.3 µM; with UACC-257 melanoma, 5.33 µM.

Take `COc1cc(Cn2cc3c(c2)-c2oncc2CC3)cc(OC)c1OC`: the GI50 is 0.0196 µM with A498 renal; 0.111 µM in the assay on BT-549 breast; 0.0379 µM in the assay with HCT-116 colon; 0.0415 µM in the assay with HCT-15 colon; less than 0.0177 µM with HL-60(TB) leukemia; 0.0274 µM in the assay on M14 melanoma. For the same molecule, the GI50 in the assay on SF-295 CNS is 0.0185 µM; in the assay with SK-OV-3 ovarian, 0.0402 µM; in the assay on UACC-257 melanoma, 1.16 µM. Further, the TGI with A498 renal was 1.04 µM; with BT-549 breast, greater than 100 µM; in the assay with HCT-116 colon, greater than 100 µM; in the assay on HCT-15 colon, greater than 100 µM; with HL-60(TB) leukemia it was 0.456 µM; in the assay on M14 melanoma, 38.9 µM. Also, the TGI with SF-295 CNS was 0.059 µM; in the assay on SK-OV-3 ovarian, greater than 57.5 µM; in the assay with UACC-257 melanoma, 51.7 µM.
